Results on 1 compound are retold here after patent US20100130579A1, “CANCER THERAPY” (Georgetown University, priority 2006, published 2010).

For one test, the system named is cyclin D1. Kind of test: Gene array (microarray) analysis of cyclin D1 expression. Format: cell-based, human. The settings on record: PC3 cells, 2 μg/ml, 2 days. On the procedure: FIGS. 2A-2D. Mahanine down-regulates cyclin D1 expression in prostate and other cancer cells. FIG. 2A: Microarray analyses showing PC3 cells treated with (2 μg/ml) mahanine (+) or vehicle (−) for 2 days and RNA was extracted and microarray analysis was performed. FIG. 2B and FIG. 2C: PC3 (left panel) and LNCaP (right panel) cells were treated with 0, 1, 2 and 3 μg/ml mahanine for 3 days. RNA was extracted, and RT-PCR assays were performed to detect cyclin D1 and GAPDH mRNAs. Representative photograph from an experiment that was repeated thrice. Quantitative estimations of relative levels of cyclin D1 mRNAs (lower panel) were determined by densitometric measurements of RT-PCR gels from three independent experiments after normalization with GAPDH. […]
Microarray analysis: Total RNA was isolated from […] cells treated with or without mahanine using TRIZOL reagent (Invitrogen Corp., Carlsbad, Calif.). […] RNA was evaluated by electrophoresis before continuing with probe synthesis and hybridization. […] Following repetitive washing in saline-sodium citrate/SDS, hybridized cDNA probes were detected by chemiluminescence. […] Bound biotinylated cDNA probe was detected with alkaline phosphatase-conjugated streptavidin and CDP-Star chemiluminescent substrate (SuperArray). […]

Another test deals with cyclin D1 promoter. Kind of test: Cyclin D1 promoter activity (luciferase) assay. The format is cell-based, human. The settings on record: PC3 cells. On the procedure: FIGS. 6A-6B. Mahanine regulates the transcriptional activity of cyclin D1 and RASSF1A siRNA prevents mahanine-induced repression of cyclin D1 transcriptional activity. FIG. 6A: PC3 cells were transfected with 200 ng of full-length cyclin D1 promoter luciferase plasmids (−1745cyclin D1-Luc) or basic luciferase (PA3-Luc) plasmids and 10 ng of Renilla luciferase (pRL-TK-Luc) plasmids. Twenty-four hours after transfection cells were treated with 0, 1 and 2 μg/ml mahanine for 48 hours in normal growth media. FIG. 6B: PC3 cells were transfected with 200 ng of full-length cyclin D1 promoter luciferase plasmids or basic luciferase plasmids and 10 ng of Renilla luciferase (pRL-TK-Luc) plasmids with 200 ng of RASSF1A or RASSF1A siRNA with or without 2 μg/ml mahanine for 48 hours in normal growth media. After treatment, cells were harvested, and luciferase assays were performed. Relative cyclin D1 promoter activity was determined after normalization with Renilla luciferase activity. […]
Cyclin D1 promoter activity assay: PC3 cells were transfected with 200 ng of cyclin D1 promoter-luciferase (−1745-cyclin D1-Luc) (35) construct using GeneJammer transfection reagent (Stratagene, La Jolla, Calif.). […] After 48 hours, luciferase activity was measured in cell lysates in a microplate luminometer using the Dual Luciferase Assay kit (Promega, Madison, Wis.) according to the manufacturer's protocol. […]

In another test the test system is LNCaP and PC3 cells. The settings on record: 3 μg/ml; cited from earlier work.

Regarding `CC(C)=CCC[C@@]1(C)C=Cc2c(c(C)cc3c2[nH]c2cc(O)ccc23)O1` [mahanine], the “cyclin D1 expression (gene array)” value in the test with cyclin D1 is recorded as “down-regulated the expression of cyclin D1”. The “cyclin D1 promoter activity” value in the test on cyclin D1 promoter (1 and 2 μg/ml mahanine, 48 hours, P<0.01) is “decreased cyclin D1 promoter activity in a dose-dependent manner”. Besides, the “cyclin D1 promoter activity relative to basic vector transfected cells” value in the test on cyclin D1 promoter (full-length cyclin D1 promoter luciferase construct) is recorded as “approximately 20 fold”. In the test on LNCaP and PC3 cells, the apoptosis entry is given as “induces apoptosis”.
